Measured values taken from US11549134B2, “Modified amadoriase and method for producing the same, agent for improving surfactant resistance of amadoriase and composition for measuring HbA1c using the same” (Kikkoman Corporation, priority 2013, dated 2023).

B1: PnFX: fructosyl peptide oxidase derived from Phaeosphaeria nodorum, SEQ ID NO: 40 (protein, listed as Phaeosphaeria nodorum)
chain: MAPSRANTSVIVVGGGGTIGSSTALHLVRSGYTPSNVTVLDAYPIPSSQSAGNDLNKIMGVSLRNPVDLQLALEARQMWNEDELFKKFFHNTGRLDCAHGEKDIADLKSGYQALVDAGLDATNEWLDSEDEILKRMPLLSRDQIKGWKAIFSKDGGWLAAAKAINAVGEYLRDQGVRFGFYGAGSFKAPLLAEGVCIGVETVDGTRYYADKVVLAAGAWSPTLVELHEQCVSKAWVYGHIQLTPEEAARYKNSPVVYNGDVGFFFEPNEHGVIKVCDEFPGFTRFKMHQPFGAKAPKRISVPRSHAKHPTDTIPDASDVSIRRAIATFMPQFKNKKMFNQAMCWCTDTADAALLICEHPEWKNFVLATGDSGHSFKLLPNIGKHVVELLEGTLADDLAHAWRWRPGSGDALKSRRSAPAKDLADMPGWNHDKPRANL

Assays:
CFP-T7 [1] = experiment: Surfactant resistance of amadoriase in presence of buffering agents; assay type: biochemical, genus Coniochaeta; conditions: for CFP-T7 Residual Activity (%): 0.01% CTAC, purified CFP-T7
Procedure: In the above surfactant resistance measuring method, the residual activity of an amadoriase is measured by using various buffers in place of a 30 mM MES/21 mM Tris buffer solution. In this manner, the contribution of the buffer to the amadoriase residual activity can be evaluated. For example, in place of the 30 mM MES/21 mM Tris buffer solution (pH 6.5), e.g., a phosphate buffer solution (pH 7.0), a citrate buffer solution (pH 6.0), a HEPES buffer solution (pH 7.0) or an ACES buffer solution (pH 7.0) can be used. Other conditions and procedure can be the same as in the above surfactant resistance measuring method.
It was studied whether the surfactant resistance of an amadoriase is enhanced or not when a buffering agent other than a 30 mM MES/21 mM Tris buffering agent (pH 6.5) was used. Using CFP-T7 purified as described above as a sample, the final concentration of CTAC was set at 0.01% to evaluate the surfactant resistance of CFP-T7 according to the measurement method for surfactant resistance in Example 1 in the presence of any of various buffering agents, specifically a phosphate buffering agent containing phosphoric acid and potassium phosphate (pH 7.0), a citrate buffering agent containing citric acid and sodium citrate (pH 6.0), an MES buffering agent containing MES and it sodium salt (pH 7.0), an HEPES buffering agent containing HEPES and its sodium salt (pH 7.0), and an ACES buffering agent containing ACES and its sodium salt (pH 7.0), in place of the 30 mM MES/21 mM Tris buffering agent (pH 6.5).

CFP-T7 [2] = experiment: Surfactant resistance of amadoriase during addition of each stabilizer (CFP-T7); assay type: biochemical, genus Coniochaeta; conditions: 500 mM HEPES (pH 7.0), 0.01% CTAC
Procedure: (§1) In the above surfactant resistance measuring method, various stabilizers are added and the residual activity of an amadoriase is measured in order to evaluate the effect of the stabilizers. […] The concentration sufficient to provide a buffer capacity to a solution refers to the concentration at which pH is maintained within a predetermined range (for example pH5 to 10, pH6 to 8) without having pH change due to other reagents added to the solution. A concentration insufficient to provide a buffer capacity to a solution refers to the concentration at which pH changes by addition of other reagents to the solution and pH falls outside a particular range. These concentrations vary depending upon the type and amount of other reagents to be added to a solution; however, a person skilled in the art can appropriately determine the concentration by conventional methods. Other conditions and procedure can be the same as in the above surfactant resistance measuring method.
(§2) It was studied whether or not the addition of any of various stabilizers enhanced the surfactant resistance of an amadoriase. Phosphoric acid, a tricarboxylic acid (e.g., citric acid), a dicarboxylic acid (e.g., malic acid, maleic acid, citraconic acid, malonic acid, glutaric acid, or tartaric acid), a monpcarboxylic acid (e.g., acetic acid), MES, MOPS, MOPSO, or ammonium sulfate was used as a stabilizer. As a Comparative Example, CHES was used. To prevent change in pH when adding the stabilizer, 500 mM HEPES (pH 7.0) was used as a buffer solution; CFP-T7 purified as described above was used as a sample; the final concentration of CTAC was set at 0.01%; and any of the stabilizers was further added to evaluate the surfactant resistance of CFP-T7 according to the measurement method for surfactant resistance in Example 1. Using a 500 mM HEPES (pH 7.0) buffering agent and CFP-D2 purified as described above as a sample, any of the stabilizers was further added, and the surfactant resistance of CFP-D2 was evaluated according to the measurement method for surfactant resistance in Example 1 although under more harsh surfactant treatment conditions in which the final concentration of CTAC was set at 0.08% and the treatment temperature at 37° C.

PnFX = experiment: Surfactant resistance of PnFX during addition of each stabilizer; assay type: biochemical, Phaeosphaeria nodorum; conditions: 300 mM HEPES (pH 7.0), 0.04% CTAC
Procedure: The same stabilizers as those described above were used as stabilizers; 300 mM HEPES (pH 7.0) was used as a buffering agent to prevent a change in pH when the stabilizers was each added; PnFX purified as described above was used as a sample; the final concentration of CTAC was set at 0.04%; and the surfactant resistance of PnFX was evaluated as described above.

CFP-D2 = experiment: Surfactant resistance of amadoriase during addition of each stabilizer (CFP-D2); assay type: biochemical, genus Coniochaeta; conditions: 500 mM HEPES (pH 7.0), 0.08% CTAC, 37°C
Procedure: as §1
as §2, with “To prevent change in pH when adding the stabilizer, 500 mM HEPES (pH 7.0) was used as a buffer solution; CFP-T7 purified as described above was used as a sample; the final concentration of CTAC was set at 0.01%; and any of the stabilizers was further added to evaluate the surfactant resistance of CFP-T7 according to the measurement method for surfactant resistance in Example 1.” left out

[3] = Measurement of fructosyl peptide sample (αFVH) under mixing of CTAC, change in absorbance at 751 nm; assay type: biochemical; conditions: for Amount of Change in Absorbance at Wavelength of 751 nm under Mixing of Each Concentration of CTAC: as in Example 5, Table 7
Procedure: The purified enzyme of CFP-T7 and CFP-D7 obtained in Example 3-2 was used to measure a sample as shown below. The activity values of CFP-T7 and CFP-D7 were determined using (reagent 1) adjusted to pH 7.0 with αFVH at a final concentration of 5 mM as a substrate according to the method for measuring amadoriase activity.
(Reagent 4) αFVH (125 mg) was dissolved in ion-exchanged water, the volume of the solution was fixed to 10 ml, and thereby a 30 mM substrate solution was obtained. In addition, the resultant was diluted by 1/714 with a CTAC solution to provide a 42 μM αFVH/0% to 0.2% CTAC solution.
(Reagent 6) (50 μl) was added to a mixed solution of 135 μl of (reagent 5) warmed at 37° C. for 5 minutes in advance and 25 μl of the sample prepared in (11) above to start reaction, and absorbance at a wavelength of 751 nm after reaction at 37° C. for 5 minutes was measured using an automated analyzer, Bio Majesty JCA-BM1650 (from JEOL Ltd.). Absorbance (reagent blank) at a wavelength of 751 nm measured by a similar operation for (reagent 4) prepared using ion-exchanged water in place of the substrate solution was used as a control to calculate the amount of change in absorbance (difference) when each sample was measured, using the following equation. The final concentration of a colorimetric substrate, DA-64, was 0.15 mM; the final concentration of αFVH in the case of the presence of a substrate was 5 μM; and the length (optical path) of the cell used for absorbance measurement was 1 cm. Amount of change in absorbance=ΔAes−Ae0
The amount of change in absorbance when αFVH/0% to 0.2% CTAC were used as samples was calculated.
The purified preparations of amadoriases obtained as described above were used as samples to measure αFVH under the mixing of CTAC using PnFX and NvFX as in Example 5.

[4] = Buffer Solution 50 mM, pH 7.0 (citrate pH 6.0)
[5] = Buffer Solution 100 mM, pH 7.0 (citrate pH 6.0)

Molecule | CFP-T7 Residual Activity (%) (CFP-T7 [1]; [4]) | CFP-T7 Residual Activity (%) (CFP-T7 [1]; [5]) | CFP-T7 Residual Activity (%) (CFP-T7 [1]; Buffer Solution 150 mM, pH 7.0) | CFP-T7 Residual Activity (%) (CFP-T7 [1]; Buffer Solution 300 mM, pH 7.0) | CFP-T7 Residual Activity (%) (CFP-T7 [2]; Stabilizer 10 mM, Table 9-1) | CFP-T7 Residual Activity (%) (CFP-T7 [2]; Stabilizer 20 mM, Table 9-1) | CFP-T7 Residual Activity (%) (CFP-T7 [2]; Stabilizer 2 mM, Table 9-1) | CFP-T7 Residual Activity (%) (CFP-T7 [2]; Stabilizer 5 mM, Table 9-1) | CFP-D2 Residual Activity (%) (CFP-D2; Stabilizer 5 mM) | PnFX Residual Activity (%) (PnFX; Stabilizer 5 mM) | also measured
O=S(=O)(O)CCN1CCOCC1 [MES, 2-(N-morpholino)ethanesulfonic acid] | 14.3 | 17.6 | 62.9 | 95.8 | 19.5 | 54.1 |  |  |  |  | CFP-T7 Residual Activity (%) (CFP-T7 [2]; Stabilizer 40 mM, Table 9-1): 103.0%; PnFX Residual Activity (%) (PnFX; Stabilizer 20 mM): 89.6%
O=C(O)CC(O)C(=O)O (stereo not drawn) [Malate, malic acid] |  |  |  |  | 74.3 |  | 12.6 | 35.4 | 59.2 | 60.4 | 
O=C(O)CC(O)(CC(=O)O)C(=O)O [Citrate, citric acid] | 108.2 | 105.7 |  |  |  |  | 87.6 |  |  |  | CFP-T7 Residual Activity (%) (CFP-T7 [1]; Buffer Solution 10 mM, pH 7.0 (citrate pH 6.0)): 104.1%; amadoriase stabilizing effect of the buffer (in words) (CFP-T7 [1]; CFP-T7 in the presence of surfactant): inactivation due to the surfactant did not occur even at 10 mM; CFP-T7 Residual Activity (%) (CFP-T7 [2]; Stabilizer 0.2 mM, Table 9-1): 12.2%; CFP-T7 Residual Activity (%) (CFP-T7 [2]; Stabilizer 0.5 mM, Table 9-1): 30.7%; PnFX Residual Activity (%) (PnFX; Stabilizer 0.5 mM): 47.3%
O=S(=O)(O)CCCN1CCOCC1 [MOPS, 3-(N-morpholino)propanesulfonic acid] |  |  |  |  |  |  |  |  |  |  | CFP-T7 Residual Activity (%) (CFP-T7 [2]; Stabilizer 10 mM, Table 9-2): 6.5%; CFP-T7 Residual Activity (%) (CFP-T7 [2]; Stabilizer 20 mM, Table 9-2): 20.6%; CFP-D2 Residual Activity (%) (CFP-D2; Stabilizer 20 mM): 42.4%
O=P(O)(O)O [Phosphate, phosphoric acid] | 27.2 | 68.3 | 88.5 | 98.4 | 76.8 | 98.6 | 28.1 | 61.6 | 72.8 | 37.5 | CFP-T7 Residual Activity (%) (CFP-T7 [1]; Buffer Solution 20 mM, pH 7.0 (citrate pH 6.0)): 15.1%; CFP-T7 Residual Activity (%) (CFP-T7 [2]; Stabilizer 50 mM, Table 9-1): 100.0%
B1 |  |  |  |  |  |  |  |  |  |  | measurement of αFVH under the mixing of CTAC (in words) [3]: capable of measuring αFVH as a substrate under the mixing of CTAC at a concentration as high as 0.02% or more; Amount of Change in Absorbance at Wavelength of 751 nm under Mixing of Each Concentration of CTAC ([3]; Mixing of CTAC 0%): 0.173; Amount of Change in Absorbance at Wavelength of 751 nm under Mixing of Each Concentration of CTAC ([3]; Mixing of CTAC 0.01%): 0.115; Amount of Change in Absorbance at Wavelength of 751 nm under Mixing of Each Concentration of CTAC ([3]; Mixing of CTAC 0.02%): 0.084; Amount of Change in Absorbance at Wavelength of 751 nm under Mixing of Each Concentration of CTAC ([3]; Mixing of CTAC 0.04%): 0.026; Amount of Change in Absorbance at Wavelength of 751 nm under Mixing of Each Concentration of CTAC ([3]; Mixing of CTAC 0.06%): 0.008; Amount of Change in Absorbance at Wavelength of 751 nm under Mixing of Each Concentration of CTAC ([3]; Mixing of CTAC 0.1%): 0.003; Amount of Change in Absorbance at Wavelength of 751 nm under Mixing of Each Concentration of CTAC ([3]; Mixing of CTAC 0.2%): 0.001; PnFX Residual Activity (%) (PnFX; Stabilizer None): 27.9%
